Laboratory results reported in EP2423181A1, “Multitarget substituted biphenyl diol derivatives” (PROUS INSTITUTE FOR BIOMEDICAL RESEARCH S.A., priority 2010, dated 2012).
Structures can show the parent of a compound that is named as a salt. Where two headings read alike, the source gives them in different places.

Columns and labels:
ERβ = ERβ (Homo sapiens, UniProt Q92731); assay: Inhibition of ERβ; format: binding; settings: slight, non-significant
mice [1] = assay: Hot plate test (analgesic activity); format: in vivo
Description: The hot plate test was used as an animal model of thermally-induced pain. The inhibitory activity measured on the time licking and biting induced by temperature (30 sec max at 55°C) indicates analgesic effect. […] Table 13. Analgesic activity of example 1 in the hot plate test

[2] = Maximum Tolerated Dose after acute administration; settings: mouse, in vivo, ip, mice
Description: The Maximum Tolerated Dose (MTD) in mice was determined for selected compounds. The protocol of the studies was in accordance with the standard guidelines for drug development: • (htp://dtp.nci.nih.gov/branches/btb/acute tox.html). Table 10. Maximum Tolerated Doses in mice after acute i.p. administration

mice [3] = assay: Hot plate test (analgesic activity); format: in vivo; remark: listed apart in the source
MAPK1 (ERK2) = biological target: T1, MAPK1 (ERK2) (Homo sapiens, UniProt P28482); assay: MAPK1 (ERK2) kinase inhibition ([32P]MBP); format: biochemical
T1 construct: host or cells: E. coli
T1 sequence (P28482 whole entry): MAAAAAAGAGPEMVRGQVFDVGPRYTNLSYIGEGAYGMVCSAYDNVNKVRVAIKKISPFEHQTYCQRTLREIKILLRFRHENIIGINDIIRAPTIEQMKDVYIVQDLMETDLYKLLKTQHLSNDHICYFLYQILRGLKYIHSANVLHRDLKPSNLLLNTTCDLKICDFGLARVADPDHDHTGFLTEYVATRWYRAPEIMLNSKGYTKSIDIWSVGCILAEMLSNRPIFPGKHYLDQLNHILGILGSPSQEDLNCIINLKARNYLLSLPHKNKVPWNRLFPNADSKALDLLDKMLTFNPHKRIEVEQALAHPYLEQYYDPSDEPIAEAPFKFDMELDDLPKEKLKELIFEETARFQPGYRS
Description: Protein serine threonine kinase MAPK1(ERK2) was assessed in human recombinant E.Coli using 50 µg/ml myelin basic protein (MBP) as a substrate after preincubation and incubation times of 15 and 30 min, respectively, at 37°C in 20 mM MOPS, pH 7.2, 5 mM EGTA, 20 mM MgCl2, 1 mM DTT, 25 mM β-glycerophosphate, 1 mM Na3VO4 incubation buffer. The inhibitory activity was measured by quantification of [^32P]MBP (Jonhson, G.L. and Lapadat, R. Science 2002, 298(5600), 1911-1912). Table 8. Inhibition of MAPK1 at 10 µM

Src = biological target: T2, Src (Homo sapiens, UniProt P12931); assay: Src protein tyrosine kinase inhibition (ELISA of Poly[Glu:Tyr-P]); format: biochemical
T2 construct: host or cells: Sf9 insect cells
T2 sequence (P12931 whole entry): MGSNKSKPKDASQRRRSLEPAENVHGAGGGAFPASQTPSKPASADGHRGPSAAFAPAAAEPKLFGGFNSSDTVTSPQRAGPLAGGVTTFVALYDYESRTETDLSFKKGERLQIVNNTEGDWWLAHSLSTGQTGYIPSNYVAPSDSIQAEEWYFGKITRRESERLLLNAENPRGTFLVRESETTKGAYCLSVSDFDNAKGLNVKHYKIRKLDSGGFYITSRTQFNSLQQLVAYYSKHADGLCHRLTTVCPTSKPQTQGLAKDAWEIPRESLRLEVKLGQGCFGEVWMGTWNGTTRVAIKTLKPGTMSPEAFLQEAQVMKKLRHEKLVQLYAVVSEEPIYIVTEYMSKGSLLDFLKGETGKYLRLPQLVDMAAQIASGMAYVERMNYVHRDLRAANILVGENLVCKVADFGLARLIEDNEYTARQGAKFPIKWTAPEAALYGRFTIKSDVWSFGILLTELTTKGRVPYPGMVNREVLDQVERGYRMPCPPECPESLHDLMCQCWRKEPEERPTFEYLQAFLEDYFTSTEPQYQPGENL
Description: Src protein tyrosine kinase activity was assessed in human recombinant insect Sf9 cells using as a substrate Poly(Glu:Tyr) at 10 µg/mL with preincubation and incubation times of 15 and 5 min, respectively, at 22°C in 50 mM HEPES, pH 7.4, 1 mM DTT, 20 mM MgCl2 and 0.2 mM Na3VO4. An ELISA quantitation method of Poly[Glu:Tyr-P] was employed (Farley, K et al. Anal Biochem, 1992, 203, 151-157). Table 4. Inhibition of Src at 10 µM

[4] = biological target: T3, Gonadotrophin-releasing hormone receptors (GnRH, LH-RH)R (Homo sapiens, UniProt P30968); assay: GnRH radioligand binding assay; settings: read-out: % Inhibition at 10 µM
T3 construct: expressed in transfected cells; host or cells: Chem-1 cells
T3 sequence (P30968 1-328): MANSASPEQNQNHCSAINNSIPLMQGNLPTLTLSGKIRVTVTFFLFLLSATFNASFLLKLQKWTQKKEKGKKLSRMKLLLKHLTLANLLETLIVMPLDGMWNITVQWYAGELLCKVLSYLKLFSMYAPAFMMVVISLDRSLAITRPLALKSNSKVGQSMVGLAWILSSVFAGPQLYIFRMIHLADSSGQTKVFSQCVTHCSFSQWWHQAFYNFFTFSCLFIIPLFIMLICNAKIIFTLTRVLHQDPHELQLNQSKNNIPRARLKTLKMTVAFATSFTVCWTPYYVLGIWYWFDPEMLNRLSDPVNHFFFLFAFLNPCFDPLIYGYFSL
From the text: Gonadotrophin-releasing hormone receptors (GnRH, LH-RH)R are a family of G protein-coupled receptors for GnRH, which promotes the secretion of luteinizing hormone (LH) and follicle-stimulating hormone (FSH). The activation of this receptor promotes, through estrogen receptors (ER) located in the cytosol, an increase in gene transcription and activation of tumor suppressor genes, DNA repair, cell division and cell proliferation. GnRH agonists are useful in breast, prostate and ovarian cancer, endometriosis, melanoma, rheumatoid arthritis and Alzheimer's disease. Table 17 presents the results from radioligand binding studies for GnRH for selected compounds using human recombinant Chem-1 cells (Halmos G, Schally AV, Pinski J, Vadillo-Buenfill M, Groot K. Down regulation of pituitary receptors for luteinizing hormone-releasing hormone (LH-RH) in rats by LH-RH antagonist Cetrorelix. Prco Natl Acad Sci USA 1996;93(6):2398-2402). The specific and non specific ligands used were [^125l] [D-Trp^6]-LH-RH (0.05 nM) and [D-Trp^6]-LH-RH ([…]) and after 60 min of incubation at 25°C in a 50 mM HEPES, pH 7.5, 5 mM MgCl2, 1 mM CaCl2, and 0.2% BSA the activity was measured by radioligand binding. Table 17. GnRH radioligand binding assay

mice [5] = assay: Formalin test (antinociceptive activity); format: in vivo; settings: for Early Response / Late Response: formalin test, dose 10-30 mg/Kg i.p.; for Early Response: early response 0-5 min; for Late Response: late response 20-30 min
Description: The chemical irritant formalin test is used as a chronic pain model in animals. The s.c. administration of formalin to the paw of a mouse produces a biphasic nociceptive behavioral response, an early response (0-5 min after injection) and a late response (20-30 min after injection) (Hunskaar, S., Fasmer, O.B., Hole, K. Formalin test in mice, a useful technique for evaluating mild analgesics. J Neurosci Methods, 1985 ;14(1):69-76).
Aspirine and paracetamol are included as external active references in early and late response. Table 12. Early and late response inhibition in the formalin test.

ERα = ERα (Homo sapiens, UniProt P03372); assay: Inhibition of ERα; format: binding; settings: slight, non-significant
Chain of ERα (P03372 whole entry, species assumed): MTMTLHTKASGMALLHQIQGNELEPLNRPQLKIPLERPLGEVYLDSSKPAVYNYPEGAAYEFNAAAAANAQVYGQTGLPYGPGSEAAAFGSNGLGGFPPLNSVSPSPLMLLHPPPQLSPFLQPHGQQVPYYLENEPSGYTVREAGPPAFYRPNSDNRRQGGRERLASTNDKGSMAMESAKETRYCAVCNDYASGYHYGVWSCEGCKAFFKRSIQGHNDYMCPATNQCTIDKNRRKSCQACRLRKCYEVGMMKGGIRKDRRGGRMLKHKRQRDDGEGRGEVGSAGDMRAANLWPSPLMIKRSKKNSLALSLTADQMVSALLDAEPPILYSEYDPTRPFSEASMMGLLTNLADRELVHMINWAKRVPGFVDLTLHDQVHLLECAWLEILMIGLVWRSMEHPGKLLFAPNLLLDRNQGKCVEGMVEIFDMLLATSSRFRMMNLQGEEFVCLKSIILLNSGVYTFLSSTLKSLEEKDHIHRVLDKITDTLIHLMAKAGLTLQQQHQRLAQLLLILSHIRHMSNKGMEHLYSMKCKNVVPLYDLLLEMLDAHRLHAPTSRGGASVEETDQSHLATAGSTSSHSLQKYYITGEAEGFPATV

Chain of ERβ (Q92731 whole entry, species assumed): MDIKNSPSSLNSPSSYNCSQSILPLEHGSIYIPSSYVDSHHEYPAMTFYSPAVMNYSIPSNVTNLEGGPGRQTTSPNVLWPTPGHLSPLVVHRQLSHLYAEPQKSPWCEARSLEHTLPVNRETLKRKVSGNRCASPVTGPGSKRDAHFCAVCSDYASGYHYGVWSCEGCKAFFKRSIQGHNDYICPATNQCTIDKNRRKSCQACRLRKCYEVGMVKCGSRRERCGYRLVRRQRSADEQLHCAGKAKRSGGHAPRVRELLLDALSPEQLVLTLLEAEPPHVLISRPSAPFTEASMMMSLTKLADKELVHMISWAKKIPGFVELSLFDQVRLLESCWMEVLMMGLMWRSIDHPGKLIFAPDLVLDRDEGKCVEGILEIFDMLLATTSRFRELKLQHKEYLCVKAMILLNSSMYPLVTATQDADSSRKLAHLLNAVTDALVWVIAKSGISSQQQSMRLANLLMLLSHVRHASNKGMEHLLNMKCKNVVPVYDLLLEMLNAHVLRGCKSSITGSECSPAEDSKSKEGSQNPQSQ

C=CCc1ccc(O)c(-c2cc(CC=C)ccc2OC(CCNC)c2ccccc2)c1.Cl (stereo not drawn) [Example 1, 5,5'-Diallyl-2'-[3-(methylamino)-1-phenylpropoxy]biphenyl-2-ol hydrochloride]
inhibition at 10 µM (ERβ): 7% | Time Licking and biting (sec) Late phase (15-30 min) (mice [1]; dose 5 mg/kg i.p.): 150 s | Time Licking and biting (sec) Late phase (15-30 min) (mice [1]; dose 10 mg/kg i.p.): 150 s | Time Licking and biting (sec) Late phase (15-30 min) (mice [1]; dose 30 mg/kg i.p.): 20 s | antinociceptive activity in the hot plate test (mice [1]; dose not given): antinociceptive activity | MTD [2]: 25 mg/kg | Time Licking and biting (sec) Early phase (0-5 min) (mice [3]; dose 1 mg/kg i.p.): 57 s | Time Licking and biting (sec) Late phase (15-30 min) (mice [3]; dose 1 mg/kg i.p.): 200 s | Time Licking and biting (sec) Early phase (0-5 min) (mice [3]; dose 5 mg/kg i.p.): 45 s | Time Licking and biting (sec) Early phase (0-5 min) (mice [3]; dose 10 mg/kg i.p.): 38 s | Time Licking and biting (sec) Early phase (0-5 min) (mice [3]; dose 30 mg/kg i.p.): 30 s | inhibition at 10 µM (MAPK1 (ERK2); MAPK1, at 10 µM, read-out: % Inhibition): 58% | inhibition at 10 µM (Src; Src, at 10 µM, read-out: % Inhibition): 99% | inhibition at 10 µM ([4]; GnRH radioligand binding, 10 µM): 50% | antinociceptive activity in the formalin test (mice [5]; 30 mg/kg i.p, early and late phases, potency similar to morphine 10 mg/kg i.p.): relevant antinociceptive activity | Early Response (mice [5]): slightly active | Late Response (mice [5]): active | inhibition at 10 µM (ERα): 13%

C=CCc1ccc(O)c(-c2ccc(OC(CCNC)c3ccccc3)c(CC=C)c2)c1 (stereo not drawn) [Example 5, 3',5-Diallvl-4'-13-(methylamino)-1-phenylpropoxy]biphenyl-2-ol hydrochloride]
MTD [2]: 25 mg/kg | inhibition at 10 µM (MAPK1 (ERK2)): 80% | inhibition at 10 µM (Src): > 100% | inhibition at 10 µM [4]: 37% | Early Response (mice [5]): slightly active | Late Response (mice [5]): Active
